Entries after “also recorded” stand apart in the source; their conditions may differ.
Columns and labels:
[1] = system: Aβ injection model (Aβ 1-40 administered intracerebroventricularly); test: Morris water maze test in Aβ injection model, Test Example 1; type: in vivo, ddY mouse; settings: oral administration for four weeks in advance of Aβ 1-40
Protocol: The therapeutic effect of olmesartan medoxomil in Aβ injection model and the dose dependency thereof were examined according to the following experimental schedule. [Experimental Schedule]: Prior to the experiment, 8-week old male ddY mice were administered olmesartan medoxomil (0.5 mg/kg/day, 1 mg/kg/day, 3 mg/kg/day or 6 mg/kg/day) or distilled water orally for four weeks (day −28 to −1). Then, Aβ 1-40 was administered to the mice intracerebroventricularly (day 0). (Although Aβ 1-40 was administered into one of the lateral ventricles in WO 2006/059777, Aβ 1-40 was administered in Test Example 1 to both lateral ventricles with an interval of one day between two administrations. Except for this point, Aβ 1-40 administration was performed in the same manner as in WO 2006/059777.) From one week thereafter, a behavioral test to evaluate cognitive function (Morris water maze test; Morris R et al., J Neuroscience Methods 1984, 11, 47-60) was performed (day 7 to 12). As a negative control, mice which had received oral administration of distilled water for four weeks were administered Aβ 40-1 intracerebroventricularly. The administration of olmesartan medoxomil or distilled water was continued until the end of the behavioral test. Measurements were performed as described below. • Hidden platform test: A platform is placed below the water surface of a water pool 150 cm in diameter filled with white water-colored. Mice are released into the water, and the time it takes them to reach the platform is measured. This trial is performed three times a day and for five consecutive days. As they learn, mice become able to reach the platform more quickly day by day. • Visible platform test: Mice are released into the water under such conditions that they can see the platform. The time it takes them to reach the platform is measured. • Probe test: The platform is removed, and mice are released and allowed to swim freely. Those mice with good learning/memory swim in the quadrant where the platform was located searching for the platform. The time they spent in that quadrant is measured. • Annnulus crossing: The number of times mice crossed the platform in the probe test is counted.

[2] = system: hippocampus (CA1/Schaffer collaterals) of Aβ40-injected mice; test: Long-term potentiation in hippocampal slices, Test Example 3; type: in vivo, mouse; settings: Aβ40-injected mice with or without treatment
Protocol: (§1) • Electrophysiology: Long term potentiation was measured as previously reported (Niisato K, Fujikawa A, Komai S, Shintani T, Watanabe E, Sakaguchi G, Katsuura G, Manabe T, Noda M: Age-dependent enhancement of hippocampal long-term potentiation and impairment of spatial learning through the Rho-associated kinase pathway in protein tyrosine phosphatase receptor type Z-deficient mice. J Neurosci 2005; 25:1081-1088). Transverse hippocampal slices (400 μm thick) were prepared from 5- to 10-week-old mice or from 13- to 31-week-old mice and placed in an interface-type holding chamber for at least 1 hr. […] For the analysis of EPSPs, the inventors measured their early rising phase in order to avoid contamination by voltage-dependent components as much as possible. […] The data are expressed as mean±SEM. […] Cerebral blood flow (CBF) was continuously monitored at the site of perfusion with a laser-Doppler probe positioned stereotaxically on the cortical surface and connected to a computerized data acquisition system. CBF values were expressed as percent increase relative to the resting level. Zero values for CBF were obtained after the heart was stopped by an overdose of isoflurane at the end of the experiment. • Effect of topical application of Aβ40 on functional hyperemia: The cranial window was first perfused with Ringer's solution, and CBF responses to whisker stimulation were recorded. […]

[3] = system: Aβ-injected mice; test: Cerebral blood flow response to whisker stimulation (functional hyperemia), Test Example 3; type: in vivo, mouse; settings: Aβ-injected mice with or without treatment
Protocol: as §1

[4] = system: Aβ-injected mice; test: Cerebrovascular autoregulation (CBF versus MAP), Test Example 3; type: in vivo, mouse; settings: Aβ-injected mice with or without treatment
Protocol: as §1

CCCc1nc(C(C)(C)O)c(C(=O)O)n1Cc1ccc(-c2ccccc2-c2nnn[nH]2)cc1 [olmesartan, 4-(1-hydroxy-1-methylethyl)-2-propyl-1-[4-[2-(tetrazol-5-yl)phenyl]phenyl]methylimidazole-5-carboxylic acid]
cognitive impairment (spatial memory and learning) in Morris water maze test, overall [1]: ameliorated | long-term potentiation (LTP) in hippocampus, field potential slope after tetanic stimulation [2]: recovery of LTP | Aβ-induced impairment in neurovascular coupling (CBF response to whisker stimulation) [3]: improved; also recorded: recovery of neurovascular coupling | cerebrovascular autoregulation impaired by Aβ (relation between CBF and MABP) [4]: recovered
